# Measured values as given in patent publication US12138256B2, “Treatment of cardiopulmonary disorders” (Bayer Aktiengesellschaft, priority 2021, dated 2024).
# “And” between values parts separate entries of the source, which are not always exact repeats. Equal values may be shown once.
# Legend:
# [1] = Particle size distribution by laser diffraction with dry dispersion; assay type: physicochemical; conditions: after micronization, dry measurement (3 or 4 bar)
# Experimental: All measurements cited in the above tables were obtained by laser diffraction with dry dispersion using compressed air. Measuring in aqueous suspension with surfactants may lead to smaller particle sizes (×90 up to 1 μm smaller).
# The particle size analysis data are usually reported as cumulative undersized distribution by volume. The symbol x is used to denote the particle size, which is defined as diameter of a volume equivalent sphere. Most common characteristic values are calculated from the particle size distribution by interpolation. Frequently used are the particle sizes at the undersize values of 10%, 50% and 90% of the volume distribution, denoted as x10, x50 and x90. x50 is also known as median particle size. The symbol d is widely used to designate the particle size, thus the symbol x may be replaced by the symbol d.
# [2] = system: thromboxane analog U46619 induced PAH in minipigs; assay: PAH minipig model: comparison with and on top of standard of care (bosentan, sildenafil, riociguat); assay type: in vivo, Göttingen minipig; conditions: for BP decrease % / PAP decrease %: % change per animal; for effects on PAP and BP: bosentan 1 mg/kg, sildenafil 300 μg/kg/h, riociguat 3 μg/kg/h systemically, comparative example 11 30 and 100 μg/kg inhaled
# Excerpt: Efficacy of inhaled comparative example 11 was compared with systemically applied bosentan, sildenafil and riociguat (see FIG. 53a) in the PAH minipig model. […] Therefore inhaled application of comparative example 11 offers clear benefits as systemic effects are avoided, compared to standard of care.
# [3] = system: isolated Langendorff-perfused rat heart; assay: Isolated perfused heart according to Langendorff: perfusion pressure and wash-out score (C-1.2); conditions: 100 nmol/l
# Experimental: Male Wistar rats (strain HsdCpb:WU) with a body weight of 200-250 g were anaesthetized with Narcoren® (100 mg/kg). The thorax was opened and the heart was then exposed, excised and connected to a Langendorff apparatus by placing a cannula into the aorta. The heart was perfused retrogradely at 9 ml/min at constant flow with a Krebs-Henseleit buffer solution (gassed with 95% O2 and 5% CO2, pH 7.4, 35° C.; composition in mmol/l: NaCl 118; KCl 3; NaHCO3 22; KH2PO4 1.2; MgSO4 1.2; CaCl2 1.8; Glucose 10; Na pyruvate 2). A pressure transducer registered the perfusion pressure in the perfusion system. The left ventricular pressure (LVP) was measured using a second pressure transducer connected to a water-filled balloon which was inserted into the left ventricle via the left atrium. The end diastolic pressure was initially set to 8 mm Hg by adjusting the volume of the balloon. The hearts were spontaneously beating. The signals from the pressure transducer were amplified, registered by a personal computer (Powerlab Chart software, ADInstruments).
# Then the hearts were perfused for a further 120 min without the test substance (wash-out phase). The reversibility of the effect (wash-out score) was calculated as a percentage of the PP recovery after 60 min of washout related to the maximum drop of PP induced by the test compound. The wash-out score obtained in this manner was taken as a measure for the residence time of the test substance at the site of action.
# [4] = system: thromboxane analog U46619 induced PAH in minipigs; assay: Haemodynamics (PAP, BP) in the anesthetized thromboxane challenged PAH minipig after inhaled (nebulized) application (C-2.1); assay type: in vivo, Göttingen minipig; conditions: inhaled 100 μg/kg
# Experimental: Experiments were carried out in anesthetized Göttingen minipigs, anesthetized rats and conscious, telemetrically instrumented dogs. Acute pulmonary hypertension was induced for example by infusion of a thromboxane A2 analogon, by acute hypoxia treatment or hypoxia treatment over a number of weeks and/or by administration of monocrotaline. Test substances were applied via nebulization using the Nebutec® or Aeroneb® Pro nebulizer system, and/or by means of powder and/or solution applicators for experimental intratracheal administration (Liquid MicroSprayer®, Dry Powder Insufflator™, MicroSprayer®, Penn-Century Inc., Wyndmoor, PA, USA) or after solid nebulization inserted into the inspiration arm of the ventilation. Compounds were employed as solids or solutions depending on the molecular structure and the technical possibility depending on the experiment. The haemodynamic signals were recorded and evaluated by means of pressure transducers/amplifiers (Combitransducer B. Braun, Melsungen, Germany or CardioMEMS Inc., Atlanta, GA, USA) and Ponemah® or CardioMems® as data aquisition software. After long-term experiments (for example monocrotaline rat), it is also possible to carry out a histological evaluation.
# Healthy Gottingen Minipigs® Ellegaard (Ellegaard, Denmark) of both sexes and having a weight of 2-6 kg were used. The animals were sedated by i.m. administration of about 25 mg/kg ketamine and about 10 mg/kg azaperone. Anaesthesia was initiated by i.v. administration of about 2 mg/kg ketamine and about 0.3 mg/kg midazolam. Maintenance of anaesthesia was by i.v. administration of about 7.5-30 mg/kg/h ketamine and about 1-4 mg/kg/h midazolam (rate of infusion 1-4 ml/kg/h) and about 150 μg/kg/h pancuronium bromide (for example Pancuronium-Actavis). After intubation, the animals were ventilated by the ventilator at a constant respiratory volume (10-12 ml/kg, 35 breaths/min; Avea®, Viasys Healthcare, USA, or Engstrom Carestation, GE Healthcare, Freiburg, Germany) such that an end-tidal CO2 concentration of about 5% was achieved. Ventilation was performed with room air, enriched with about 40% oxygen (normoxia). For the measurement of the haemodynamic parameters such as pulmonary arterial pressure (PAP), blood pressure (BP) and heart rate (HR), catheters were inserted into the carotid artery to measure the blood pressure, and a Swan-Ganz® catheter was introduced in a flow-directed manner via the jugular vein into the pulmonary artery. The haemodynamic signals were recorded and evaluated by means of pressure transducers (Combitransducer, B. Braun, Melsungen, Germany)/amplifiers and Ponemah® as data aquisition software.
# After the instruments have been placed into the animals, continuous infusion of a thromboxane A2 analog was initiated to increase the pulmonary arterial pressure. […] D0400, or Cayman Chemical Company, cat. no. 16440), dissolved in physiological saline, were infused to achieve an increase of the mean pulmonary arterial pressure to values of over 25 mmHg. 30 minutes after the start of the infusion, a plateau was reached, and the experiment was started.
# The test substances were administered as i.v. infusion or by inhalation. For the preparation of the solution for inhalation, the following procedure was adopted: For an animal having a weight of 4 kg, to prepare the stock solution (300 μg/kg), 1.2 mg of the test compound were weighed out and dissolved in a total volume of 3 ml (1% DMSO, 99% 0.2% strength citric acid solution, 1 N aqueous sodium hydroxide solution to adjust the pH to 8). The solution was then diluted to the concentration employed using 0.2% strength citric acid which had been adjusted to pH 8 beforehand with aqueous sodium hydroxide solution. In each test, 3 ml of the solution of test compound per 4 kg animal were nebulized in the inhalation arm of the respiratory circuit using the Aeroneb® Pro nebulizer system. The mean nebulization time was about 7 min from the start of the nebulization.
# [5] = Bosentan 1 mg/kg systemically applied
# [6] = Sildenafil 300 μg/kg/h systemically applied
structure (smiles),measurement,setting,value
O.O=C(O)c1ccc(CCN(CCc2ccccc2OCc2ccc(-c3ccc(C(F)(F)F)cc3)cc2Cl)[C@H]2CCCc3nc(C(=O)O)ccc32)cc1 [8d],PSD X10,[1],"X10: 0.5 μm,"
same,PSD X50,[1],"X50: 2.3 μm,"
same,PSD X90,[1],X90: 9.6 μm
"COc1ccccc1Oc1c(NS(=O)(=O)c2ccc(C(C)(C)C)cc2)nc(-c2ncccn2)nc1OCCO [Bosentan, reference compound]",BP decrease %,[2]; [5],−6.7% and −15.0% and −10.3% and −12.7%
same,PAP decrease %,[2]; [5],−3.7% and 3.9% and −7.7% and −16.0%
same,effects on PAP and BP,[2],decrease in BP with only minor effects on PAP
O.O=C(O)c1ccc(CCN(CCc2ccccc2OCc2ccc(-c3ccc(C(F)(F)F)cc3)cc2Cl)[C@H]2CCCc3nc(C(=O)O)ccc32)cc1 [example 8b],PSD X10,[1],"X10: 0.7 μm,"
same,PSD X50,[1],"X50: 1.9 μm,"
same,PSD X90,[1],X90: 5.0 μm
"CCCc1nn(C)c2c(=O)[nH]c(-c3cc(S(=O)(=O)N4CCN(C)CC4)ccc3OCC)nc12 [sildenafil, reference compound]",BP decrease %,[2]; [6],−10.6% and −6.1% and −14.5%
same,PAP decrease %,[2]; [6],−15.3% and −34.3% and −16.1%
same,effects on PAP and BP,[2],decreases in both PAP and BP
COC(=O)N(C)c1c(N)nc(-c2nn(Cc3ccccc3F)c3ncccc23)nc1N [Riociguat (comparative example 2)],Wash-out score (%) after 60 min,[3],98.0%
same,Perfusion pressure (%) (timepoint at 20 min) Mean,[3]; isolated Langendorff-perfused rat heart,55.4%
same,Perfusion pressure (%) (timepoint at 90 min) Mean,[3]; wash-out phase,99.9%
same,% changes in BP vs baseline,[4]; 0 min vs. start inhalation,100% and 102%
same,% changes in PAP vs baseline,[4]; 0 min vs. start inhalation,99%
same,% changes in BP vs baseline,[4]; 10 min vs. start inhalation,91% and 86%
same,% changes in PAP vs baseline,[4]; 10 min vs. start inhalation,95% and 92%
same,% changes in BP vs baseline,[4]; 20 min vs. start inhalation,91% and 85%
same,% changes in PAP vs baseline,[4]; 20 min vs. start inhalation,94% and 90%
same,% changes in BP vs baseline,[4]; 30 min vs. start inhalation,94%
same,% changes in PAP vs baseline,[4]; 30 min vs. start inhalation,94% and 90%
same,% changes in BP vs baseline,[4]; −5 min vs. start inhalation,100%
same,% changes in PAP vs baseline,[4]; −5 min vs. start inhalation,99% and 101%
